Measurements published in US20140235729A1, “BENZYLAMINE CONTAINING COMPOSITIONS AND METHODS FOR APPETITE SUPPRESSION” (Zija International, Inc., priority 2013, published 2014).

Assays:
[1] = 'thought to be' / 'believed to be'; cited from earlier work
[2] = in subjects; 'understood to be'; cited from earlier work
[3] = tested on: appetite; assay: appetite suppression after oral consumption by a subject; assay type: in vivo; settings: consumed orally by a subject; 'results have shown'; listed as Moringine
Experimental: Generally speaking, most parts of the Moringa Oleifera tree are edible, with the leaves and seeds often being associated with most of the above-mentioned nutritional and health benefits.
However, the medium lethal dose (LD50) of benzylamine in subjects is understood to be about 600 milligrams (mg) per kilogram (kg) (i.e., 600 mg/kg). […] However, in accordance with the novel appetite suppression compositions and methods described herein, an effective amount of benzylamine that is far below the LD50 can be orally administered to adult humans for appetite suppression.

NCc1ccccc1 [benzylamine]
in vivo half-life [1]: 15 to 30 min
medium lethal dose (LD50) [2]: about 600 mg/kg
appetite suppression [3]: can suppress a subject's appetite
